Holding throughout (type): cell-based, human
Assay [1] relates to AGS (Gastric Adenocarcinoma). The assay is described as follows: Cell viability analysis, gastric cancer AGS. The settings on record: Homo sapiens, 72 h.
Assay [2] relates to MKN-45 (Gastric Adenocarcinoma). Description: Cell viability analysis, gastric cancer MKN-45. The settings on record: Homo sapiens, MKN-45, 72 h.
Assay [3] has as its system A549 (Lung Adenocarcinoma). Description: Cell viability analysis, lung cancer A549. The settings on record: Homo sapiens, A549, 72 h.
For assay [4], the system named is HL-60 (Acute Promyelocytic Leukemia). Description: Cell viability analysis, leukemia HL-60. The settings on record: Homo sapiens, HL-60, 72 h.
In assay [5] the test system is PC3 (p53−) (Prostate Adenocarcinoma). Description: Cell viability analysis, prostate cancer PC3. The settings on record: Homo sapiens, 72 h.
Assay [6] relates to HepG2 (Hepatocellular Carcinoma). The assay is described as follows: Cell viability analysis, hepatic cancer HepG2. The settings on record: Homo sapiens, HepG2, 72 h.
In assay [7] the test system is MCF7 (Mammary Gland, Adenocarcinoma). The assay is described as follows: Cell viability analysis, breast cancer MCF7. The settings on record: Homo sapiens, MCF7, 72 h.
Assay [8] deals with LoVo (Colorectal Adenocarcinoma). Description: Cell viability analysis, colon cancer LoVo. The settings on record: Homo sapiens, LoVo, 72 h, read-out: cell viability (survival rate), LoVo, drug 10 μM, 72 hours, WST-1, OD450 nm.
The test system of assay [9] is A375 (Amelanotic Melanoma). Description: Cell viability analysis, skin cancer A375. The settings on record: Homo sapiens, A-375, 72 h.
For assay [10], the system named is HeLa (Cervix Adenocarcinoma). Description: Cell viability analysis, cervical cancer HeLa. The settings on record: Homo sapiens, HeLa, 72 h.
In assay [11] the test system is HI650 (Lung Adenocarcinoma). The assay is described as follows: Cell viability analysis, lung cancer HI650. The settings on record: Homo sapiens, NCI-H1650, 72 h.
The next assay has as its system cancer cell lines. The assay is described as follows: Cell viability analysis (WST-1) on cancer cell lines. The settings on record: drug 10 μM, 72 hours, WST-1; Table 3.
Assay [12] deals with TSGH-8301 (Urinary Bladder Carcinoma). Description: Cell viability analysis, bladder cancer TSGH-8301. The settings on record: Homo sapiens, 72 h.
[13] abbreviates: drug 10 μM, 72 hours, WST-1, OD450 nm, read-out: cell viability (survival rate), AGS.
Setting [14] is: drug 10 μM, 72 hours, WST-1, OD450 nm, read-out: cell viability (survival rate), MKN-45.
The mark [15] stands for this setting: drug 10 μM, 72 hours, WST-1, OD450 nm, read-out: cell viability (survival rate), A549.
Setting [16] is: drug 10 μM, 72 hours, WST-1, OD450 nm, read-out: cell viability (survival rate), HL-60.
Setting [17] is: drug 10 μM, 72 hours, WST-1, OD450 nm, read-out: cell viability (survival rate), PC3.
[18] abbreviates: drug 10 μM, 72 hours, WST-1, OD450 nm, read-out: cell viability (survival rate), HepG2.
[19] abbreviates: drug 10 μM, 72 hours, WST-1, OD450 nm, read-out: cell viability (survival rate), MCF7.
Where [20] appears, read: drug 10 μM, 72 hours, WST-1, OD450 nm, read-out: cell viability (survival rate), A375.
The mark [21] stands for this setting: drug 10 μM, 72 hours, WST-1, OD450 nm, read-out: cell viability (survival rate), HeLa.
Setting [22] is: drug 10 μM, 72 hours, WST-1, OD450 nm, read-out: cell viability (survival rate), H1650.
[23] abbreviates: drug 10 μM, 72 hours, WST-1, OD450 nm, read-out: cell viability (survival rate), TSGH.
The mark [24] stands for this setting: read-out: cell viability (survival rate), AGS, drug 10 μM, 72 hours, WST-1, OD450 nm.
Setting [25] is: read-out: cell viability (survival rate), MKN-45, drug 10 μM, 72 hours, WST-1, OD450 nm.
Setting [26] is: read-out: cell viability (survival rate), A549, drug 10 μM, 72 hours, WST-1, OD450 nm.
[27] abbreviates: read-out: cell viability (survival rate), HL-60, drug 10 μM, 72 hours, WST-1, OD450 nm.
Setting [28] is: read-out: cell viability (survival rate), PC3, drug 10 μM, 72 hours, WST-1, OD450 nm.
[29] abbreviates: read-out: cell viability (survival rate), HepG2, drug 10 μM, 72 hours, WST-1, OD450 nm.
Where [30] appears, read: read-out: cell viability (survival rate), MCF7, drug 10 μM, 72 hours, WST-1, OD450 nm.
Where [31] appears, read: read-out: cell viability (survival rate), A375, drug 10 μM, 72 hours, WST-1, OD450 nm.
The mark [32] stands for this setting: read-out: cell viability (survival rate), HeLa, drug 10 μM, 72 hours, WST-1, OD450 nm.
Setting [33] is: read-out: cell viability (survival rate), H1650, drug 10 μM, 72 hours, WST-1, OD450 nm.
The mark [34] stands for this setting: read-out: cell viability (survival rate), TSGH, drug 10 μM, 72 hours, WST-1, OD450 nm.

Where a name gives a salt, the structure may show the parent alone. Read-outs that look alike come from different tables or passages of the source.

As for `CC(=O)O[C@]1(C(C)=O)CC[C@H]2[C@@H]3C[C@H](C)C4=CC(=O)CC[C@]4(C)[C@H]3CC[C@@]21C` [Medroxyprogesterone acetate], the viability at 10 µM in [1] (setting [13]) came out at 72.3%; in assay [2] (setting [14]) it was 66.9%; in assay [3] (setting [15]), 60.5%; in assay [4] (setting [16]), 51.7%; in assay [5] (setting [17]) it was 82%; in assay [6] (setting [18]), 78.6%. The viability at 10 µM in assay [7] (setting [19]) is 69.3%; in assay [8] it was 65.9%; in assay [9] (setting [20]), 81%; in assay [10] (setting [21]), 70.4%; in assay [11] (setting [22]), 38.6%; in [12] (setting [23]), 79.4%. Moreover, the “inhibition effect on different cancer cell lines” value in the assay with cancer cell lines was “significant inhibition effect”.

Consider `Nc1ccn(C[C@@H](CO)OCP(=O)(O)O)c(=O)n1` [Cidofovir (Vistide), Cidofovir], for which the viability at 10 µM is 39.6% in assay [1] (setting [13]); 56.9% in assay [2] (setting [14]); 58.3% in [3] (setting [15]); 112% in assay [4] (setting [16]); 63.9% in assay [5] (setting [17]); 97.2% in [6] (setting [18]). Besides, the viability at 10 µM in assay [7] (setting [19]) was 78.3%; in [8], 82.3%; in assay [9] (setting [20]), 82.6%; in assay [10] (setting [21]), 82.1%; in assay [11] (setting [22]), 53.3%; in [12] (setting [23]) it was 49.8%. Besides, the “inhibition effect on different cancer cell lines” value in the assay on cancer cell lines is “significant inhibition effect”.

For the molecule `COc1cc2nc(N3CCN(C(=O)C4CCCO4)CC3)nc(N)c2cc1OC` (stereo not drawn) [Terazos in HCl (Hytrin), Terazosin HCl], the viability at 10 µM in [1] (setting [24]) was 56.8%; in assay [2] (setting [25]), 82.1%; in assay [3] (setting [26]), 21.3%; in assay [4] (setting [27]), 111%; in assay [5] (setting [28]), 40.5%; in assay [6] (setting [29]), 93.4%. The viability at 10 µM was 33.4% in assay [7] (setting [30]); 45.7% in assay [8]; 77.9% in [9] (setting [31]); 60.7% in assay [10] (setting [32]); 74.9% in assay [11] (setting [33]); 71.6% in assay [12] (setting [34]). For the same molecule, in the assay on cancer cell lines, the “inhibition effect on different cancer cell lines” value was “significant inhibition effect”.

For `CN(C)c1ccc(C(=C2C=CC(=[N+](C)C)C=C2)c2ccc(N(C)C)cc2)cc1` [Crystal violet], the viability at 10 µM came out at 52.7% in [1] (setting [24]); 44.8% in [2] (setting [25]); 37.5% in assay [3] (setting [26]); 37.3% in assay [4] (setting [27]); 31.8% in assay [5] (setting [28]); 70.3% in assay [6] (setting [29]). Also, the viability at 10 µM amounted to 46% in assay [7] (setting [30]); 62.3% in assay [8]; 32% in assay [9] (setting [31]); 38.9% in [10] (setting [32]); 68.5% in assay [11] (setting [33]); 44.1% in [12] (setting [34]). Besides, the “inhibition effect on different cancer cell lines” value in the assay on cancer cell lines is on record as “significant inhibition effect”.

As to `CO[C@H]1/C=C/O[C@@]2(C)Oc3c(C)c(O)c4c(O)c(c(/C=N/N5CCN(C)CC5)c(O)c4c3C2=O)NC(=O)/C(C)=C\C=C\[C@H](C)[C@H](O)[C@@H](C)[C@@H](O)[C@@H](C)[C@H](OC(C)=O)[C@@H]1C` [Rifampin (Rifadin, Rimactane), Rifampin], the viability at 10 µM is 111% in assay [1] (setting [13]); 61.1% in assay [2] (setting [14]); 45.2% in assay [3] (setting [15]); 105% in [4] (setting [16]); 69.9% in assay [5] (setting [17]); 98.5% in assay [6] (setting [18]). Moreover, the viability at 10 µM in assay [7] (setting [19]) turned out to be 39.7%; in assay [8] it was 83.9%; in [9] (setting [20]), 61.6%; in assay [10] (setting [21]), 58.8%; in assay [11] (setting [22]), 89.1%; in [12] (setting [23]), 108%. The “inhibition effect on different cancer cell lines” value with cancer cell lines is recorded as “significant inhibition effect”.

With `CCS(=O)(=O)CCn1c([N+](=O)[O-])cnc1C` [tinidazole], the viability at 10 µM was 104% in assay [1] (setting [24]); 100% in [2] (setting [25]); 79.5% in assay [3] (setting [26]); 89% in assay [4] (setting [27]); 85.6% in assay [5] (setting [28]); 95.5% in assay [6] (setting [29]). Moreover, the viability at 10 µM amounted to 88% in assay [7] (setting [30]); 78.5% in assay [8]; 60.6% in assay [9] (setting [31]); 97.8% in [10] (setting [32]); 91.1% in [11] (setting [33]); 112% in [12] (setting [34]). In addition, the “inhibition effect on different cancer cell lines” value in the assay with cancer cell lines is listed as “significant inhibition effect”.
